Assays:
MAGL [1] = target: MAGL (Homo sapiens (Human), UniProt Q99685); test: In vitro competitive activity-based protein profiling, human proteomes (prefrontal cortex or PC3 cell membrane fractions); type: biochemical; conditions: human proteome; for inhibition at 1 µM: read-out: MAGL % inh. 1 μM (human); for inhibition at 10 µM: read-out: MAGL % inh. (human) @ 10 μM
Description: (§1) In Vitro Competitive Activity-Based Protein Profiling.
(§2) Proteomes (mouse brain membrane fraction or cell lysates for mouse assays; human prefrontal cortex or PC3 cell membrane fractions for human assays) (50 μL, 1.0 or 2.0 mg/mL total protein concentration) were preincubated with varying concentrations of inhibitors at 37° C. After 30 min, FP-Rh or JW912 or HT-01 (1.0 μL, 50 μM in DMSO) was added and the mixture was incubated for another 30 min at 37° C. Reactions were quenched with SDS loading buffer (15 μL-4×) and run on SDS-PAGE. Following gel imaging, serine hydrolase activity was determined by measuring fluorescent intensity of gel bands corresponding to MAGL and FAAH using ImageJ 1.43u software.

MAGL [2] = target: MAGL (Mus musculus (Mouse), UniProt O35678); test: In vitro competitive activity-based protein profiling, mouse proteomes (brain membrane fraction or cell lysates); type: biochemical; conditions: mouse proteome, read-out: MAGL % inh. 1 μM (mouse)
Description: as §1, §2

Chain of MAGL (Mus musculus (Mouse), UniProt O35678) (O35678 whole entry): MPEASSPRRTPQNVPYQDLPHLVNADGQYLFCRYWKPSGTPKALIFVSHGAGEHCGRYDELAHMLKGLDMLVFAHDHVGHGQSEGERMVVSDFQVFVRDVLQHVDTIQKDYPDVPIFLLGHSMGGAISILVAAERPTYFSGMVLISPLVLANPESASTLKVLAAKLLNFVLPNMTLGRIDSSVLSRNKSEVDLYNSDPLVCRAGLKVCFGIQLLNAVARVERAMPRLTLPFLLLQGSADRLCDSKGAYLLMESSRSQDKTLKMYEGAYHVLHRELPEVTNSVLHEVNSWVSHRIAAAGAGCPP
Chain of MAGL (Homo sapiens (Human), UniProt Q99685) (Q99685 whole entry): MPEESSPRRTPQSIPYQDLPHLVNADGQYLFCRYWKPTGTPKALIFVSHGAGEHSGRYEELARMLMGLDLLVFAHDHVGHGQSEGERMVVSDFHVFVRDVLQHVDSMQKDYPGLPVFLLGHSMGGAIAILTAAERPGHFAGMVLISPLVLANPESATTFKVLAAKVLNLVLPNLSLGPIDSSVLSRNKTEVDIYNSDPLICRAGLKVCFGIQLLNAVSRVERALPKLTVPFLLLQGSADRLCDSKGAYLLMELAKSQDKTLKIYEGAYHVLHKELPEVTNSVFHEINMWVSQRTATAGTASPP

Row | SMILES | inhibition at 1 µM (MAGL [1]) | further results
1 | CN(Cc1ccc(Cl)c(N2CCCC2)c1)C1(C)CCN(C(=O)n2ccc(NS(C)(=O)=O)n2)CC1 [Example 183, N-(1-(4-((4-Chloro-3-(pyrrolidin-1-yl)benzyl)(methyl)amino)-4-methylpiperidine-1-carbonyl)-1H-pyrazol-3-yl)methanesulfonamide] | > 75% | inhibition at 1 µM (MAGL [2]): > 75%
2 | CN(Cc1ccc(Cl)cc1N1CCOCC1)C1(C)CCN(C(=O)n2ccc(NS(C)(=O)=O)n2)CC1 [Example 198, N-(1-(4-((4-Chloro-2-morpholinobenzyl)(methyl)amino)-4-methylpiperidine-1-carbonyl)-1H-pyrazol-3-yl)methanesulfonamide] | > 75% | inhibition at 1 µM (MAGL [2]): 50 to 75%
3 | CC(C)C1CCN(c2cc(CN3CCN(C(=O)n4ccc(NS(C)(=O)=O)n4)CC3)ccc2Cl)CC1 [Example 213, N-(1-(4-(4-Chloro-3-(4-isopropyl-piperidin-1-yl)benzyl)piperazine-1-carbonyl)-1H-pyrazol-3-yl)methane-sulfonamide] | > 75% | 
4 | CC(=O)Nc1ccn(C(=O)N2CCC(N(C)Cc3cc(C(F)(F)F)cc(C4(C(=O)O)CCCC4)c3)CC2)n1 [Example 193, 1-(3-(((1-(3-Acetamido-1H-pyrazole-1-carbonyl)piperidin-4-yl)(methyl)amino)methyl)-5-(trifluoromethyl)phenyl)cyclopentane-1-carboxylic acid] | > 75% | inhibition at 1 µM (MAGL [2]): > 75%
5 | C[C@@H]1CN(C(=O)n2ccc(NS(C)(=O)=O)n2)CCN1Cc1ccc(Cl)c(N2CCC(F)(F)CC2)c1 [Example 201, (R)-N-(1-(4-(4-Chloro-3-(4,4-difluoropiperidin-1-yl)benzyl)-3-methylpiperazine-1-carbonyl)-1H-pyrazol-3-yl)methanesulfonamide] | > 75% | inhibition at 1 µM (MAGL [2]): > 75%
6 | CS(=O)(=O)Nc1ccn(C(=O)N2CCN(Cc3ccc(Cl)c(F)c3)CC2)n1 [Example 212, N-(1-(4-(4-Chloro-3-fluorobenzyl)piperazine-1-carbonyl)-1H-pyrazol-3-yl)methane-sulfonamide] | > 75% | 
7 | CN(Cc1ccc(Cl)c(N2CCC(F)CC2)c1)C1CCN(C(=O)n2ccc(NS(C)(=O)=O)n2)CC1 [Example 206, N-(1-(4-((4-Chloro-3-(4-fluoropiperidin-1-yl)benzyl)(methyl)amino)piperidine-1-carbonyl)-1H-pyrazol-3-yl)methanesulfonamide] | > 75% | 
8 | CS(=O)(=O)Nc1ccn(C(=O)N2CCN(Cc3ccc(F)c(OC(F)(F)F)c3)CC2)n1 [Example 218, N-(1-(4-(4-Fluoro-3-(trifluoromethoxy)benzyl)piperazine-1-carbonyl)-1H-pyrazol-3-yl)methane-sulfonamide] | > 75% | 
9 | C[C@@H]1CN(C(=O)n2ccc(NS(C)(=O)=O)n2)CCN1Cc1ccc(Cl)c(N2CC[C@H](F)C2)c1 [Example 203, N-(1-((R)-4-(4-Chloro-3-((S)-3-fluoropyrrolidin-1-yl)benzyl)-3-methylpiperazine-1-carbonyl)-1H-pyrazol-3-yl)methanesulfonamide] | > 75% | 
10 | CC(=O)Nc1ccn(C(=O)N2CCN(Cc3ccc(-c4ccccc4)cc3C)C[C@@H]2C)n1 [Example 207, (S)-N-(1-(2-Methyl-4-((3-methyl-[1,1′-biphenyl]-4-yl)methyl)piperazine-1-carbonyl)-1H-pyrazol-3-yl)acetamide] | > 75% | 
11 | CS(=O)(=O)Nc1ccn(C(=O)N2CCC3(CCCN3Cc3ccc(Cl)cc3N3CCC(F)CC3)CC2)n1 [Example 204, N-(1-(1-(4-Chloro-2-(4-fluoropiperidin-1-yl)benzyl)-1,8-diazaspiro[4.5]decane-8-carbonyl)-1H-pyrazol-3-yl)methanesulfonamide] | > 75% | 
12 | C[C@@H]1CCCN1c1cc(CN2CCN(C(=O)n3ccc(NS(C)(=O)=O)n3)C[C@@H]2C)ccc1Cl [Example 199, N-(1-((S)-4-(4-Chloro-3-((R)-2-methylpyrrolidin-1-yl)benzyl)-3-methylpiperazine-1-carbonyl)-1H-pyrazol-3-yl)methanesulfonamide] | > 75% | inhibition at 1 µM (MAGL [2]): > 75%
13 | CN(Cc1ccc(Cl)c(N2CC3COCC3C2)c1)C1CCN(C(=O)n2ccc(NS(C)(=O)=O)n2)CC1 (stereo not drawn) [Example 177, N-(1-(4-((4-Chloro-3-(tetrahydro-1H-furo[3,4-c]pyrrol-5(3H)-yl)benzyl)(methyl)amino)piperidine-1-carbonyl)-1H-pyrazol-3-yl)methanesulfonamide] | > 75% | inhibition at 1 µM (MAGL [2]): > 75%
14 | CS(=O)(=O)Nc1ccn(C(=O)N2CCC3(CCN(Cc4ccccc4)C3)CC2)n1 [Example 165, N-(1-(2-Benzyl-2,8-diazaspiro[4.5]decane-8-carbonyl)-1H-pyrazol-3-yl)methanesulfonamide] |  | inhibition at 10 µM (MAGL [1]): > 75%
15 | CC(=O)Nc1ccn(C(=O)N2CCN(Cc3ccc(-c4ccccc4)cc3C)C[C@H]2C)n1 [Example 208, (R)-N-(1-(2-Methyl-4-((3-methyl-[1,1′-biphenyl]-4-yl)methyl)piperazine-1-carbonyl)-1H-pyrazol-3-yl)acetamide] | > 75% | IC50 (MAGL [1]): < 0.1 µM
16 | C[C@H]1CN(Cc2ccc(C(F)(F)F)c(N3CC4COCC4C3)c2)CCN1C(=O)n1ccc(NS(C)(=O)=O)n1 (stereo partly drawn) [Example 178, N-(1-((2S)-2-Methyl-4-(3-(tetrahydro-1H-furo[3,4-c]pyrrol-5(3H)-yl)-4-(trifluoromethyl)benzyl)piperazine-1-carbonyl)-1H-pyrazol-3-yl)methanesulfonamide] | > 75% | IC50 (MAGL [1]): < 0.1 µM; inhibition at 1 µM (MAGL [2]): > 75%
17 | C[C@H]1CN(C(=O)n2ccc(NS(C)(=O)=O)n2)CCN1Cc1ccc(C(F)(F)F)c(N2CC3COCC3C2)c1 (stereo partly drawn) [Example 179, N-(1-((3S)-3-Methyl-4-(3-(tetrahydro-1H-furo[3,4-c]pyrrol-5(3H)-yl)-4-(trifluoromethyl)benzyl)piperazine-1-carbonyl)-1H-pyrazol-3-yl)methanesulfonamide] | > 75% | IC50 (MAGL [1]): < 0.1 µM; inhibition at 1 µM (MAGL [2]): > 75%
18 | CC(=O)Nc1ccn(C(=O)N2CCC(C)(N(C)Cc3ccc(Cl)c(C)c3)CC2)n1 [Example 217, N-(1-(4-((4-Chloro-3-methylbenzyl) (methyl)amino)-4-methyl-piperidine-1-carbonyl)-1H-pyrazol-3-yl)acetamide] | > 75% | 
19 | CS(=O)(=O)Nc1ccn(C(=O)N2CCN(Cc3ccc(Cl)c(C(F)(F)F)c3)CC2)n1 [Example 214, N-(1-(4-(4-Chloro-3-(trifluoromethyl)benzyl)piperazine-1-carbonyl)-1H-pyrazol-3-yl)methane-sulfonamide] | > 75% | 
20 | C[C@H]1CN(C(=O)n2ccc(NS(C)(=O)=O)n2)CCN1Cc1ccc(Cl)c(C2CCCC2)c1 [Example 216, (S)-N-(1-(4-(4-Chloro-3-cyclopentyl-benzyl)-3-methyl-piperazine-1-carbonyl)-1H-pyrazol-3-yl)methane-sulfonamide] | > 75% | 
21 | CS(=O)(=O)Nc1ccn(C(=O)N2CCN(Cc3ccc(Cl)c(N4CCC(C#N)CC4)c3)CC2)n1 [Example 211, N-(1-(4-(4-Chloro-3-(4-cyano-piperidin-1-yl)benzyl)piperazine-1-carbonyl)-1H-pyrazol-3-yl)methane-sulfonamide] | > 75% | 
22 | CS(=O)(=O)Nc1ccn(C(=O)N2CCC3(CCCN3Cc3ccc(Cl)cc3N3CC4COCC4C3)CC2)n1 (stereo not drawn) [Example 205, N-(1-(1-(4-Chloro-2-(tetrahydro-1H-furo[3,4-c]pyrrol-5(3H)-yl)benzyl)-1,8-diazaspiro[4.5]decane-8-carbonyl)-1H-pyrazol-3-yl)methanesulfonamide] | > 75% | 
23 | C[C@@H]1CN(C(=O)n2ccc(NS(C)(=O)=O)n2)CCN1Cc1ccc(Cl)c(C2CCCC2)c1 [Example 215, (R)-N-(1-(4-(4-Chloro-3-cyclopentyl-benzyl)-3-methyl-piperazine-1-carbonyl)-1H-pyrazol-3-yl)methane-sulfonamide] | > 75% | 
24 | CS(=O)(=O)Nc1ccn(C(=O)N2CCN(Cc3cccc(C(F)(F)F)c3Cl)CC2)n1 [Example 219, N-(1-(4-(2-Chloro-3-(trifluoromethyl)benzyl)piperazine-1-carbonyl)-1H-pyrazol-3-yl)methane-sulfonamide] | > 75% | 
25 | CS(=O)(=O)Nc1ccn(C(=O)N2CCN(Cc3ccc(Cl)c(N4CC5CNCC5C4)c3)CC2)n1 (stereo not drawn) [Example 152, N-(1-(4-(4-Chloro-3-(hexahydropyrrolo[3,4-c]pyrrol-2(1H)-yl)benzyl)piperazine-1-carbonyl)-1H-pyrazol-3-yl)methanesulfonamide] |  | inhibition at 10 µM (MAGL [1]): > 75%
26 | Cc1c(CN2CCN(C(=O)n3ccc(NS(C)(=O)=O)n3)CC2)cccc1C(F)(F)F [Example 220, N-(1-(4-(2-Methyl-3-(trifluoromethyl)benzyl)piperazine-1-carbonyl)-1H-pyrazol-3-yl)methane-sulfonamide] | > 75% | 
27 | CS(=O)(=O)Nc1ccn(C(=O)N2CCN(Cc3ccc(F)c(Oc4ccccc4)c3)CC2)n1 [Example 222, N-(1-(4-(4-Fluoro-3-phenoxy-benzyl)piperazine-1-carbonyl)-1H-pyrazol-3-yl)methane-sulfonamide] | > 75% | 
28 | CS(=O)(=O)Nc1ccn(C(=O)N2CCN(Cc3ccc(OC(F)F)c(OCC4CC4)c3)CC2)n1 [Example 221, N-(1-(4-(3-(Cyclopropyl-methoxy)-4-(difluoro-methoxy)benzyl)piperazine-1-carbonyl)-1H-pyrazol-3-yl)methane-sulfonamide] | > 75% | 
